Results from patent US12023348B2, “EGR1 targeting molecules for the treatment of inflammatory and hyperproliferative conditions” (The Medical Research, Infrastructure and Health Services …, priority 2015, dated 2024).

Test system: human psoriatic skin graft
Test: Chimeric mice carrying human psoriatic skin
Type: in vivo
Settings: for Clinical and histological psoriasiform phenotype (average improvement score) / Overt toxicity / Epidermal thickness / Keratinocyte proliferation (Ki67): i.p. five times a week; for Clinical and histological psoriasiform phenotype (average improvement score) / Overt toxicity: 10 days; for Clinical and histological psoriasiform phenotype (average improvement score): ApDx 5 mg/kg (p<0.0001), CaCx 15 mg/kg (p<0.05) (FIG. 6); for Overt toxicity / Epidermal thickness / Keratinocyte proliferation (Ki67): ApDx 5 mg/kg or CaCx 15 mg/kg; for Epidermal thickness / Keratinocyte proliferation (Ki67): biopsies after 10 days (FIGS. 7A-F, 8)
Source text: Chimeric mice carrying human psoriatic skin were generated using SCID mice, 2-3 months of age. Animals were maintained in a pathogen-free animal facility. A psoriasis-like phenotype was induced in normal human skin grafted onto the mice by intradermal injection of natural killer/T cells derived from psoriatic patients as previously described [Gilhar A et al. J Invest Dermatol (2011) 131: 118-124].
Formaldehyde-fixed 5-μm paraffin-embedded sections from skin biopsies were deparaffinized and treated with 3% H2O2 in methanol for 15 minutes at room temperature, warmed in a microwave oven in citrate buffer in a pressure cooker for 25 minutes, and stained with a monoclonal anti-Ki67 antibody (Thermo Scientific) for 1 hour at room temperature. Following 3 washings (10 minutes each) with phosphate-buffered saline (PBS), the antibodies were imaged using the ABC technique (Zymed Laboratories, South San Francisco, CA) and the slides were counterstained with hematoxylin.
Epidermal thickness was defined as the distance between the granular layer and the basement membrane and was measured at 10 randomly selected locations for each biopsy using NIS-Elements BR 3.2 software (Nikon, NY USA). An image was taken and was manually measured in the software by selecting an upper and lower border, as defined above. The distance was measured in microns.
RNA was extracted from cell cultures using an RNA extraction kit (Roche Diagnostics, Mahheim, Germany). cDNA was synthesized from 500 ng of total RNA using the Verso cDNA kit (Thermo Fisher Scientific, Waltham, MA, USA). cDNA PCR amplification was carried out using the Fast SYBR Green Master Mix in a StepOnePlus™ Real-Time PCR System (Applied Biosystems, Foster City, CA, USA) with gene-specific intron-crossing oligonucleotide pairs listed in Table 1 (below). For quantification, standard curves were obtained using serially diluted cDNA amplified in the same qRT-PCR run. The melting temperature (Tm) of the amplified products was measured to confirm the specificity of the reaction conditions. Cycling conditions were as follows: 95° C. for 10 minutes, 95° C. for 10 seconds, 62° C. for 15 seconds, and 72° C. for 25 seconds for a total of 40 cycles. Each sample was analyzed in triplicate. mRNA expression level for target gene was normalized to GAPDH. The results are based the amount of target, normalized to an endogenous reference (IACTB) and relative to a calibrator, as calculated by 2-ΔΔCT. All samples were run in triplicate. The expression levels of target genes were expressed as mRNA relative units.
To assess the potential therapeutic role of the compounds (ApDx and CaCx) of some embodiments of the invention, the two compounds were administered systemically (i.p) to chimeric mice carrying human psoriatic skin. In short, SCID mice, 2-3 months of age, were maintained in a pathogen-free animal facility. A psoriasis-like phenotype was induced in normal human skin grafted onto the mice by intradermal injection of natural killer/T cells derived from psoriatic patients as previously described [Gilhar A et al. J Invest Dermatol (2011) 131: 118-124]. Two weeks after natural killer/T-cell injection (6 weeks after human skin grafting), mice were injected i.p. five times a week. Four groups of mice were treated as follows: one group of mice was injected five times a week with the vehicle; a second group of mice was injected five times a week ApDx (5 mg/kg); a third group of mice was injected five times a week CaCx (15 mg/kg); and a fourth group of mice, was treated with dexamethasone (DEX) cream applied 5 times a week on the graft, as positive control (DEX was expected to attenuate inflammation in this model). Each group included five mice, and the treatment was performed for a total of 10 days. The grafts were harvested from the four groups of mice, paraffin-embedded, stained for hematoxylin and eosin (H&E), analyzed and scored for the average improvement of the clinical and histological psoriasiform phenotype.

SMILES | Clinical and histological psoriasiform phenotype (average improvement score) | Overt toxicity | Epidermal thickness | Keratinocyte proliferation (Ki67) | EGR1 RNA levels in treated skin (quantitative PCR vs vehicle group (FIG. 9), CaCx 15 mg/kg i.p.)
Cc1c2ccnc(C(N)=O)c2c(C)c2c1[nH]c1ccccc12.Cl [Compound 335142, 6H-Pyrido[4,3-b]carbazole-1-carboxamide, 5,11-dimethyl-, monohydrochloride] | significant clinical and histological attenuation | No overt toxicity | significant decrease | significant decrease | significant decrease
CCCN1c2ccc(N)cc2S(=O)(=O)c2cc(Cl)cc(Cl)c21 [Compound 629971, 7,9-dichloro-5,5-dioxo-10-propylphenothiazin-3-amine] | significant clinical and histological attenuation | No overt toxicity | significant decrease | significant decrease | –
